Test results from the supplement of paper PMC10307832.

What was measured:
Experiment in all cases: relative viability (nuclei count vs DMSO), 5 days (fraction); higher = more cells survive
[1] = compound: COc1cc2nccc(Oc3ccc(NC(=O)C4(C(=O)Nc5ccc(F)cc5)CC4)cc3)c2cc1OC [Cabozantinib] + CCNC(=O)c1noc(-c2cc(C(C)C)c(O)cc2O)c1-c1ccc(CN2CCOCC2)cc1 [Luminespib] (partner 0.01 µM)
Outline: (§1)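 For relative viability, nuclei counts in treated wells were divided by those in vehicle wells. Lung cancer cell lines had been pin-tool dosed in 1536-well plates the day after seeding and cultured for 5 days, then fixed and stained in one step (final 0.05% Triton X-100, 1% formaldehyde, 1 ug/ml Hoechst) and imaged at 4×. Doses were one drug alone or a fixed anchor-drug dose plus five library-drug doses (not always all listed) in √10 steps, and values are duplicate-plate medians.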

[2] = compound: O[C@@H](COc1cccc2ncccc12)CN1CCN([C@@H]2c3ccccc3[C@@H]3[C@H](c4ccccc42)C3(F)F)CC1 [Zosuquidar] + NC(=O)Nc1cc(-c2cccc(F)c2)sc1C(=O)N[C@H]1CCCNC1 [AZD7762] (partner 0.2 µM)
Outline: as §1

[3] = compound: COc1cc2nccc(Oc3ccc(NC(=O)C4(C(=O)Nc5ccc(F)cc5)CC4)cc3)c2cc1OC [Cabozantinib] + COc1cc2c(Oc3ccc(NC(=O)C4(C(=O)Nc5ccc(F)cc5)CC4)cc3F)ccnc2cc1OCCCN1CCOCC1 [Foretinib] (partner 0.25 µM)
Outline: as §1

[4] = compound: C1=CC(=CC=C1NC(=S)NNC2=C(C=C(C=C2[N+](=O)[O-])C(F)(F)F)[N+](=O)[O-])F [Kobe2602] + COc1cc2c(Oc3ccc(NC(=O)C4(C(=O)Nc5ccc(F)cc5)CC4)cc3F)ccnc2cc1OCCCN1CCOCC1 [Foretinib] (partner 0.25 µM)
Outline: as §1

Cell Line: NCI-H1395
- relative viability ([1]; first compound 0.02 µM): 0.744
- relative viability ([1]; first compound 0.06325 µM): 0.978
- relative viability ([1]; first compound 0.2 µM): 0.873
- relative viability ([1]; first compound 0.6325 µM): 0.619
- relative viability ([1]; first compound 2 µM): 0.547
- relative viability ([2]; first compound 0.01 µM): 0.398
- relative viability ([2]; first compound 0.03162 µM): 0.373
- relative viability ([2]; first compound 0.3162 µM): 0.409
- relative viability ([2]; first compound 1 µM): 0.429
- relative viability ([3]; first compound 0.02 µM): 0.93
- relative viability ([3]; first compound 0.06325 µM): 1.17
- relative viability ([3]; first compound 0.2 µM): 1.07
- relative viability ([3]; first compound 0.6325 µM): 1.06
- relative viability ([3]; first compound 2 µM): 0.932
- relative viability ([4]; first compound 0.2 µM): 0.935
- relative viability ([4]; first compound 0.6325 µM): 0.976
- relative viability ([4]; first compound 2 µM): 0.976
- relative viability ([4]; first compound 6.325 µM): 0.991
- relative viability ([4]; first compound 20 µM): 1.12

Cell Line: NCI-H1651
- relative viability ([1]; first compound 0.02 µM): 0.881
- relative viability ([1]; first compound 0.06325 µM): 0.879
- relative viability ([1]; first compound 0.2 µM): 0.908
- relative viability ([1]; first compound 0.6325 µM): 0.733
- relative viability ([1]; first compound 2 µM): 0.946
- relative viability ([2]; first compound 0.01 µM): 0.459
- relative viability ([2]; first compound 0.03162 µM): 0.476
- relative viability ([2]; first compound 0.1 µM): 0.415
- relative viability ([2]; first compound 0.3162 µM): 0.403
- relative viability ([2]; first compound 1 µM): 0.384
- relative viability ([3]; first compound 0.02 µM): 1
- relative viability ([3]; first compound 0.06325 µM): 0.739
- relative viability ([3]; first compound 0.2 µM): 1.05
- relative viability ([3]; first compound 0.6325 µM): 0.875
- relative viability ([3]; first compound 2 µM): 0.783
- relative viability ([4]; first compound 0.2 µM): 0.764
- relative viability ([4]; first compound 0.6325 µM): 0.89
- relative viability ([4]; first compound 2 µM): 0.762
- relative viability ([4]; first compound 6.325 µM): 0.776
- relative viability ([4]; first compound 20 µM): 0.868

Cell Line: NCI-H1734
- relative viability ([1]; first compound 0.02 µM): 0.186
- relative viability ([1]; first compound 0.06325 µM): 0.206
- relative viability ([1]; first compound 0.2 µM): 0.22
- relative viability ([1]; first compound 0.6325 µM): 0.203
- relative viability ([1]; first compound 2 µM): 0.186
- relative viability ([2]; first compound 0.01 µM): 0.526
- relative viability ([2]; first compound 0.03162 µM): 0.515
- relative viability ([2]; first compound 0.1 µM): 0.563
- relative viability ([2]; first compound 0.3162 µM): 0.599
- relative viability ([2]; first compound 1 µM): 0.514
- relative viability ([3]; first compound 0.02 µM): 0.916
- relative viability ([3]; first compound 0.06325 µM): 0.864
- relative viability ([3]; first compound 0.2 µM): 0.878
- relative viability ([3]; first compound 0.6325 µM): 0.858
- relative viability ([3]; first compound 2 µM): 0.769
- relative viability ([4]; first compound 0.2 µM): 0.843
- relative viability ([4]; first compound 0.6325 µM): 0.938
- relative viability ([4]; first compound 2 µM): 0.978
- relative viability ([4]; first compound 6.325 µM): 0.901
- relative viability ([4]; first compound 20 µM): 0.855

Cell Line: PC-14
- relative viability ([1]; first compound 0.02 µM): 0.198
- relative viability ([1]; first compound 0.06325 µM): 0.139
- relative viability ([1]; first compound 0.6325 µM): 0.237
- relative viability ([1]; first compound 2 µM): 0.179
- relative viability ([2]; first compound 0.01 µM): 0.3
- relative viability ([2]; first compound 0.03162 µM): 0.372
- relative viability ([2]; first compound 0.1 µM): 0.314
- relative viability ([2]; first compound 0.3162 µM): 0.363
- relative viability ([2]; first compound 1 µM): 0.344
- relative viability ([3]; first compound 0.02 µM): 0.99
- relative viability ([3]; first compound 0.06325 µM): 1
- relative viability ([3]; first compound 0.6325 µM): 1.05
- relative viability ([3]; first compound 2 µM): 0.976
- relative viability ([4]; first compound 0.2 µM): 0.962
- relative viability ([4]; first compound 0.6325 µM): 0.968
- relative viability ([4]; first compound 2 µM): 0.922
- relative viability ([4]; first compound 6.325 µM): 0.939
- relative viability ([4]; first compound 20 µM): 0.911

Cell Line: NCI-H2347
- relative viability ([1]; first compound 0.02 µM): 0.411
- relative viability ([1]; first compound 0.06325 µM): 0.661
- relative viability ([1]; first compound 0.2 µM): 0.778
- relative viability ([1]; first compound 2 µM): 0.515
- relative viability ([2]; first compound 0.01 µM): 0.701
- relative viability ([2]; first compound 0.03162 µM): 0.811
- relative viability ([2]; first compound 0.1 µM): 0.564
- relative viability ([2]; first compound 0.3162 µM): 0.808
- relative viability ([2]; first compound 1 µM): 0.764
- relative viability ([3]; first compound 0.02 µM): 0.842
- relative viability ([3]; first compound 0.06325 µM): 0.916
- relative viability ([3]; first compound 0.2 µM): 1.28
- relative viability ([3]; first compound 0.6325 µM): 1.11
- relative viability ([3]; first compound 2 µM): 1.05
- relative viability ([4]; first compound 0.2 µM): 1.32
- relative viability ([4]; first compound 0.6325 µM): 1.38
- relative viability ([4]; first compound 2 µM): 0.83
- relative viability ([4]; first compound 6.325 µM): 0.63
- relative viability ([4]; first compound 20 µM): 0.868

Cell Line: NCI-H1793
- relative viability ([1]; first compound 0.02 µM): 0.591
- relative viability ([1]; first compound 0.06325 µM): 0.168
- relative viability ([1]; first compound 0.2 µM): 0.144
- relative viability ([1]; first compound 0.6325 µM): 0.202
- relative viability ([1]; first compound 2 µM): 0.155
- relative viability ([2]; first compound 0.01 µM): 0.519
- relative viability ([2]; first compound 0.3162 µM): 0.516
- relative viability ([2]; first compound 1 µM): 0.692
- relative viability ([3]; first compound 0.02 µM): 0.738
- relative viability ([3]; first compound 0.06325 µM): 1.07
- relative viability ([3]; first compound 0.2 µM): 0.645
- relative viability ([3]; first compound 0.6325 µM): 0.678
- relative viability ([3]; first compound 2 µM): 0.617
- relative viability ([4]; first compound 0.2 µM): 0.847
- relative viability ([4]; first compound 0.6325 µM): 0.803
- relative viability ([4]; first compound 2 µM): 0.684
- relative viability ([4]; first compound 6.325 µM): 0.728
- relative viability ([4]; first compound 20 µM): 0.863

Cell Line: NCI-H650
- relative viability ([1]; first compound 0.06325 µM): 0.784
- relative viability ([1]; first compound 0.2 µM): 0.952
- relative viability ([1]; first compound 0.6325 µM): 0.751
- relative viability ([1]; first compound 2 µM): 0.724
- relative viability ([2]; first compound 0.01 µM): 0.944
- relative viability ([2]; first compound 0.03162 µM): 0.801
- relative viability ([2]; first compound 0.1 µM): 0.897
- relative viability ([2]; first compound 0.3162 µM): 1.31
- relative viability ([2]; first compound 1 µM): 0.898
- relative viability ([3]; first compound 0.06325 µM): 1.03
- relative viability ([3]; first compound 0.2 µM): 1.06
- relative viability ([3]; first compound 0.6325 µM): 0.999
- relative viability ([3]; first compound 2 µM): 0.984
- relative viability ([4]; first compound 0.2 µM): 1.1
- relative viability ([4]; first compound 0.6325 µM): 1.01
- relative viability ([4]; first compound 2 µM): 1.05
- relative viability ([4]; first compound 6.325 µM): 1.05
- relative viability ([4]; first compound 20 µM): 0.907

Cell Line: NCI-H596
- relative viability ([1]; first compound 0.02 µM): 0.905
- relative viability ([1]; first compound 0.06325 µM): 1.26
- relative viability ([1]; first compound 0.2 µM): 1.02
- relative viability ([1]; first compound 0.6325 µM): 1.08
- relative viability ([1]; first compound 2 µM): 0.907
- relative viability ([2]; first compound 0.01 µM): 0.974
- relative viability ([2]; first compound 0.03162 µM): 1.14
- relative viability ([2]; first compound 0.1 µM): 0.958
- relative viability ([2]; first compound 0.3162 µM): 1.25
- relative viability ([2]; first compound 1 µM): 1.28
- relative viability ([3]; first compound 0.02 µM): 0.89
- relative viability ([3]; first compound 0.06325 µM): 1.09
- relative viability ([3]; first compound 0.2 µM): 0.9
- relative viability ([3]; first compound 0.6325 µM): 0.906
- relative viability ([3]; first compound 2 µM): 0.777
- relative viability ([4]; first compound 0.2 µM): 0.851
- relative viability ([4]; first compound 0.6325 µM): 0.708
- relative viability ([4]; first compound 2 µM): 0.957
- relative viability ([4]; first compound 6.325 µM): 0.915
- relative viability ([4]; first compound 20 µM): 0.846
